In one data set the test system is Bacillus subtilis. In words: Antimicrobial activity against Bacillus subtilis (agar plate-cylinder). In kind it is cell-based. As to conditions: standard bleomycin A2 (copper-free) assumed 1,000 mcg potency/mg. The procedure: (§1) 2. ANT[…] MYC[…] ATCC 607 AND BACILLUS SUBTILIS
(§2) The antimicrobial activity was tested against the captioned test organisms by the method of agar plate-cylinder. The activity was recorded on the assumption that the activity of standard sample of bleomycin A2 (copper-free form) is 1,000 mcg poteney/mg.

Data set [1] concerns Mycobacterium smegmatis ATCC 607. In words: Antimicrobial activity against Mycobacterium smegmatis ATCC 607 (agar plate-cylinder). In kind it is cell-based. As to conditions: standard bleomycin A2 (copper-free) assumed 1,000 mcg potency/mg. The procedure:
as §1, §2

A further data set concerns pulmonary fibrosis. The data set is described as follows: Pulmonary toxicity (pulmonary fibrosis) in mice. As to conditions: for Incidence: Number of mice with pulmonary fibrosis (%) / Incidence: Number of mice with pulmonary fibrosis / Grade: Total score of pulmonary fibrosis/total number of samples / Grade: Total score of pulmonary fibrosis/total number of samples (%): ICR mice, 5 mg/kg i.p. once a day for 10 days; for Incidence: Number of mice with pulmonary fibrosis (%) / Incidence: Number of mice with pulmonary fibrosis: 5 weeks observation; for Incidence: Number of mice with pulmonary fibrosis: mice with fibrosis/total; for Grade: Total score of pulmonary fibrosis/total number of samples / Grade: Total score of pulmonary fibrosis/total number of samples (%): points 0, 1, 2, 4, 6; for Ratio (by comparison with "Bleomycin Complex"): versus Bleomycin Complex.

For `Cc1c(N)nc(C(CC(N)=O)NCC(N)C(=O)NCCCNC(C)c2ccccc2)nc1C(=O)NC(C(=O)NC(C)C(O)C(C)C(=O)NC(C(=O)NCCc1nc(-c2nc(C(=O)NCCCN(C)CCCNCCc3ccc(Cl)cc3)cs2)cs1)C(C)O)C(OC1OC(CO)C(O)C(O)C1OC1OC(CO)C(O)C(OC(N)=O)C1O)c1cnc[nH]1` [Compound 43, 3-{N--methyl-N--[3-(2-(p-chlorophenyl)ethyl)aminopropyl]amino}-propylamino-(amido)N--[3-((S)-1'-phenylethyl)aminopropyl]-BLM], the “Antimicrobial potency of Cu-free compound against Bacillus subtilis” value with Bacillus subtilis is given as 4267 mcg potency/mg. Besides, in data set [1], the “Antimicrobial potency of Cu-free compound against Mycobacterium smegmatis ATCC 607” value came out at 15593 mcg potency/mg. For the same compound, in the data set with pulmonary fibrosis, the “Incidence: Number of mice with pulmonary fibrosis (%)” value (“Incidence: Number of mice … (%)” below) stood at 0%, the “Incidence: Number of mice with pulmonary fibrosis” value is 0/1, the “Grade: Total score of pulmonary fibrosis/total number of samples” value is reported as 0/3 and the “Grade: Total score of pulmonary fibrosis/total number of samples (%)” value was 0%. For the same compound, in the data set on pulmonary fibrosis, the “Ratio (by comparison with "Bleomycin Complex")” value (“Ratio” for short) stood at 0.

As to `Cc1c(N)nc(C(CC(N)=O)NCC(N)C(=O)NCCCN(C)CCCNCCc2ccc(Cl)cc2)nc1C(=O)NC(C(=O)NC(C)C(O)C(C)C(=O)NC(C(=O)NCCc1nc(-c2nc(C(=O)NCCCN(C)CCCNCCc3ccc(Cl)cc3)cs2)cs1)C(C)O)C(OC1OC(CO)C(O)C(O)C1OC1OC(CO)C(O)C(OC(N)=O)C1O)c1cnc[nH]1` (stereo not drawn) [Compound 45, 3-{N--methyl-N--[3-(2-(p-chlorophenyl)ethyl)aminopropyl]amino}-propylamino(amido)N--{3-[N-- methyl-N--[3-(2-(p-chlorophenyl)-ethyl)aminopropyl]amino]propyl}-BLM], in the data set with Bacillus subtilis, the “Antimicrobial potency of Cu-free compound against Bacillus subtilis” value is recorded as 270 mcg potency/mg. Moreover, the “Antimicrobial potency of Cu-free compound against Mycobacterium smegmatis ATCC 607” value in data set [1] stood at 650 mcg potency/mg. In the data set with pulmonary fibrosis, the “Incidence: Number of mice … (%)” value was determined as 0%, the “Incidence: Number of mice with pulmonary fibrosis” value is given as 0/9, the “Grade: Total score of pulmonary fibrosis/total number of samples” value is on record as 0/27 and the “Grade: Total score of pulmonary fibrosis/total number of samples (%)” value is listed as 0%. For the same compound, the “Ratio” value with pulmonary fibrosis is listed as 0.

In the case of `Cc1c(N)nc(C(CC(N)=O)NCC(N)C(=O)NCCCNC(C)c2ccccc2)nc1C(=O)NC(C(=O)NC(C)C(O)C(C)C(=O)NC(C(=O)NCCc1nc(-c2nc(C(=O)NCCC[N+](C)(CCCN(Cc3ccccc3)Cc3ccccc3)Cc3ccccc3)cs2)cs1)C(C)O)C(OC1OC(CO)C(O)C(O)C1OC1OC(CO)C(O)C(OC(N)=O)C1O)c1cnc[nH]1` [Compound 47, 3-{N--methyl-N--benzyl-N--[3-(dibenzylamino)propylamino}-propylamino-(amido)N--[3-((S)-1'-phenylethyl)aminopropyl]-BLM], the “Antimicrobial potency of Cu-free compound against Bacillus subtilis” value with Bacillus subtilis came out at 180 mcg potency/mg. In data set [1], the “Antimicrobial potency of Cu-free compound against Mycobacterium smegmatis ATCC 607” value was found to be 5900 mcg potency/mg. For the same compound, in the data set on pulmonary fibrosis, the “Incidence: Number of mice … (%)” value is 0%, the “Incidence: Number of mice with pulmonary fibrosis” value is recorded as 0/8, the “Grade: Total score of pulmonary fibrosis/total number of samples” value is given as 0/24 and the “Grade: Total score of pulmonary fibrosis/total number of samples (%)” value was found to be 0%. Further, the “Ratio” value in the data set on pulmonary fibrosis is 0.

Consider `CCCCCCCCNC(=O)C(N)CNC(CC(N)=O)c1nc(N)c(C)c(C(=O)NC(C(=O)NC(C)C(O)C(C)C(=O)NC(C(=O)NCCc2nc(-c3nc(C(=O)NCCC[N+](C)(CCCN(Cc4ccccc4)Cc4ccccc4)Cc4ccccc4)cs3)cs2)C(C)O)C(OC2OC(CO)C(O)C(O)C2OC2OC(CO)C(O)C(OC(N)=O)C2O)c2cnc[nH]2)n1` (stereo not drawn) [Compound 48, 3-{N--methyl-N--benzyl-N--[3-dibenzylamino)proplyamino}-propylamino-(amido)N--[octyl]-BLM], for which, in the data set on Bacillus subtilis, the “Antimicrobial potency of Cu-free compound against Bacillus subtilis” value is 130 mcg potency/mg. Further, in data set [1], the “Antimicrobial potency of Cu-free compound against Mycobacterium smegmatis ATCC 607” value was found to be 2580 mcg potency/mg. In the data set on pulmonary fibrosis, the “Incidence: Number of mice … (%)” value is 0%, the “Incidence: Number of mice with pulmonary fibrosis” value is 0/8, the “Grade: Total score of pulmonary fibrosis/total number of samples” value is 0/24 and the “Grade: Total score of pulmonary fibrosis/total number of samples (%)” value amounted to 0%. Besides, the “Ratio” value in the data set on pulmonary fibrosis was determined as 0.

In the case of `Cc1c(N)nc(C(CC(N)=O)NCC(N)C(=O)NCCC[N+](C)(CCCN(Cc2ccccc2)Cc2ccccc2)Cc2ccccc2)nc1C(=O)NC(C(=O)NC(C)C(O)C(C)C(=O)NC(C(=O)NCCc1nc(-c2nc(C(=O)NCCC[N+](C)(CCCN(Cc3ccccc3)Cc3ccccc3)Cc3ccccc3)cs2)cs1)C(C)O)C(OC1OC(CO)C(O)C(O)C1OC1OC(CO)C(O)C(OC(N)=O)C1O)c1cnc[nH]1` (stereo not drawn) [Compound 49, 3-{N--methyl-N--benzyl-N--[3-(dibenzylamino)propylamino}-propylamino-(amido)N--{3-{N--methyl-N--benzyl-N--[3-dibenzyl-amino)propyl]amino}propyl}-BLM], the “Antimicrobial potency of Cu-free compound against Bacillus subtilis” value in the data set with Bacillus subtilis is given as 1 mcg potency/mg. The “Antimicrobial potency of Cu-free compound against Mycobacterium smegmatis ATCC 607” value in data set [1] stood at 230 mcg potency/mg. Further, in the data set with pulmonary fibrosis, the “Incidence: Number of mice … (%)” value was determined as 0%, the “Incidence: Number of mice with pulmonary fibrosis” value is recorded as 0/3, the “Grade: Total score of pulmonary fibrosis/total number of samples” value is on record as 0/9 and the “Grade: Total score of pulmonary fibrosis/total number of samples (%)” value is 0%. Further, the “Ratio” value in the data set on pulmonary fibrosis stood at 0.

For the compound `Cc1c(N)nc(C(CC(N)=O)NCC(N)C(=O)NCc2ccccc2)nc1C(=O)NC(C(=O)NC(C)C(O)C(C)C(=O)NC(C(=O)NCCc1nc(-c2nc(C(=O)NCCC[N+](C)(CCCN(Cc3ccccc3)Cc3ccccc3)Cc3ccccc3)cs2)cs1)C(C)O)C(OC1OC(CO)C(O)C(O)C1OC1OC(CO)C(O)C(OC(N)=O)C1O)c1cnc[nH]1` (stereo not drawn) [Compound 51, 3-{N--methyl-N--benzyl-N--[3-(dibenzylamino)propyl]amino}-propylamino-(amido)N--[benzyl]-BLM], the “Antimicrobial potency of Cu-free compound against Bacillus subtilis” value with Bacillus subtilis was 410 mcg potency/mg. Besides, the “Antimicrobial potency of Cu-free compound against Mycobacterium smegmatis ATCC 607” value in data set [1] is given as 24461 mcg potency/mg. Moreover, in the data set with pulmonary fibrosis, the “Incidence: Number of mice … (%)” value is recorded as 0%, the “Incidence: Number of mice with pulmonary fibrosis” value is reported as 0/8, the “Grade: Total score of pulmonary fibrosis/total number of samples” value is on record as 0/24 and the “Grade: Total score of pulmonary fibrosis/total number of samples (%)” value is listed as 0%. In the data set with pulmonary fibrosis, the “Ratio” value is 0.

As to `CCCCN(CCCC)CCCNC(=O)C(N)CNC(CC(N)=O)c1nc(N)c(C)c(C(=O)NC(C(=O)NC(C)C(O)C(C)C(=O)NC(C(=O)NCCc2nc(-c3nc(C(=O)NCCC[N+](C)(C)CCCN(Cc4ccccc4)Cc4ccccc4)cs3)cs2)C(C)O)C(OC2OC(CO)C(O)C(O)C2OC2OC(CO)C(O)C(OC(N)=O)C2O)c2cnc[nH]2)n1` (stereo not drawn) [Compound 54], in the data set with Bacillus subtilis, the “Antimicrobial potency of Cu-free compound against Bacillus subtilis” value came to 2663 mcg potency/mg. In data set [1], the “Antimicrobial potency of Cu-free compound against Mycobacterium smegmatis ATCC 607” value worked out at 32633 mcg potency/mg. Moreover, in the data set on pulmonary fibrosis, the “Incidence: Number of mice … (%)” value is given as 0%, the “Incidence: Number of mice with pulmonary fibrosis” value is 0/9, the “Grade: Total score of pulmonary fibrosis/total number of samples” value is on record as 0/27 and the “Grade: Total score of pulmonary fibrosis/total number of samples (%)” value was determined as 0%. Also, the “Ratio” value in the data set with pulmonary fibrosis is on record as 0.

Take `CC[N+](CC)(CCCNC(=O)c1csc(-c2csc(CCNC(=O)C(NC(=O)C(C)C(O)C(C)NC(=O)C(NC(=O)c3nc(C(CC(N)=O)NCC(N)C(=O)NCCCNC(C)c4ccccc4)nc(N)c3C)C(OC3OC(CO)C(O)C(O)C3OC3OC(CO)C(O)C(OC(N)=O)C3O)c3cnc[nH]3)C(C)O)n2)n1)CCCN(Cc1ccccc1)Cc1ccccc1` [Compound 55, 3-{N,N--diethyl-N--[3-(dibenzylamino)propyl]amino}-propyl-amino-(amido)N--[3-((S)-1'-phenylethyl)aminopropyl]-BLM]: the “Antimicrobial potency of Cu-free compound against Bacillus subtilis” value in the data set on Bacillus subtilis is 2150 mcg potency/mg. In addition, the “Antimicrobial potency of Cu-free compound against Mycobacterium smegmatis ATCC 607” value in data set [1] is 20840 mcg potency/mg. Further, in the data set with pulmonary fibrosis, the “Incidence: Number of mice … (%)” value is reported as 0%, the “Incidence: Number of mice with pulmonary fibrosis” value is reported as 0/9, the “Grade: Total score of pulmonary fibrosis/total number of samples” value is on record as 0/27 and the “Grade: Total score of pulmonary fibrosis/total number of samples (%)” value turned out to be 0%. The “Ratio” value in the data set with pulmonary fibrosis amounted to 0.

Take `CCCCCCCCNC(=O)C(N)CNC(CC(N)=O)c1nc(N)c(C)c(C(=O)NC(C(=O)NC(C)C(O)C(C)C(=O)NC(C(=O)NCCc2nc(-c3nc(C(=O)NCCC[N+](CC)(CC)CCCN(Cc4ccccc4)Cc4ccccc4)cs3)cs2)C(C)O)C(OC2OC(CO)C(O)C(O)C2OC2OC(CO)C(O)C(OC(N)=O)C2O)c2cnc[nH]2)n1` (stereo not drawn) [Compound 56, 3-{N,N--diethyl-N--[3-(dibenzylamino)propyl]amino}propylamino-(amido)N--[octyl]-BLM]: in the data set with Bacillus subtilis, the “Antimicrobial potency of Cu-free compound against Bacillus subtilis” value is recorded as 520 mcg potency/mg. Moreover, in data set [1], the “Antimicrobial potency of Cu-free compound against Mycobacterium smegmatis ATCC 607” value stood at 41380 mcg potency/mg. In addition, in the data set with pulmonary fibrosis, the “Incidence: Number of mice … (%)” value came to 0%, the “Incidence: Number of mice with pulmonary fibrosis” value was 0/9, the “Grade: Total score of pulmonary fibrosis/total number of samples” value was 0/27 and the “Grade: Total score of pulmonary fibrosis/total number of samples (%)” value is reported as 0%. Further, in the data set with pulmonary fibrosis, the “Ratio” value was 0.

Values taken from US4472304A, “(Amido)N-substituted bleomycins, salts thereof and process for preparation thereof” (Nippon Kayaku Kabushiki Kaisha, priority 1981, dated 1984).
